Legend:
[1] = test system: ChR2-CMs (neonatal rat ventricular CMs); type: cell-based
Protocol: (§1) Primary CMs were used through the study for all illustrative experiments with pharmacological treatments, mainly because at the current stage, they are perceived as more mature than the hiPSC-CMs and their response to drugs has been better documented. Briefly, neonatal (2-3 day old) SPRAGUE-DAWLEY® rats were sacrificed and ventricular tissue was removed per an approved Stony Brook University IACUC protocol. The tissue was digested overnight at 4° C. using 1 mg/mL trypsin (US BIOCHEMICALS®, Cleveland, Ohio) in Hanks' Balanced Salt Solution (HBSS, GIBCO® INVITROGEN™, Carlsbad, Calif.). The next morning, the tissue was serially digested using 1 mg/mL collagenase (WORTHINGTON BIOCHEMICAL®, Lakewood, N.J.) in HBSS at 37° C. and pipetted into conical tubes and placed on ice. After centrifugation, cells were re-suspended in culture medium M199 (GIBCO®) supplemented with […] L-glutamine (GIBCO®), 0.05 μg/mL penicillin-streptomycin (MEDIATECH CELLGRO™, Kansas City, Mo.), 0.2 μg/mL vitamin B12 (SIGMA ALDRICH®, St. Louis, Mo.), 10 mM HEPES (GIBCO®), 3.5 mg/mL D-(+)-glucose (SIGMA ALDRICH®), and 10% fetal bovine serum, FBS (GIBCO®). Fibroblasts were removed via a two-step pre-plating process, where the cell suspension was plated in a flask and incubated (37° C., 5% CO2) for 45-60 minutes and switched to a new flask and the incubation repeated. CMs were then counted using a hemocytometer prior to plating in glass-bottom 96-well plates (see Jia, Z. et al. Circulation. Arrhythmia and electrophysiology 4, 753-760, (2011) and Chung, C. Y., et al. J Cardiovasc Electrophysiol […], 1323-1329, (2007)).
Adenoviral delivery of ChR2(H134R) to primary CMs was performed in suspension (see Ambrosi, C. M. et al. Methods Mol Biol 1181, 215-228, (2014)). Briefly, the plasmid pcDNA3.1/hChR2(H134R)-EYFP was used (ADDGENE™, Cambridge, Mass.; deposited by Dr. K. Deisseroth) (see Zhang, F. et al. Nature 446, 633-639, (2007)), to develop an adenoviral construct (pBR322 backbone) with a ubiquitous CMV promoter. First-generation adenovirus was generated by homologous recombination of the Ad-CMV-ChR2-eYFP into pTG3604; further propagation and purification of the virus genomes was done by transfection into HEK293 cells and CsC1 banding. CMs were re-suspended in 2% FBS M199 after counting and diluted to 1.125×10^6 cells/mL and infected using an optimized MOI of 15 for two hours in an incubator (37° C., 5% CO2) with gentle agitation every 20 minutes. The MOI had been optimized during preliminary experiments to achieve >95% ChR2 expression in CMs within 48 hours using titer of 10^12 units/mL diluted in PBS, confirmed by eYFP reporter visualization and minimal cell death (by propidium iodide staining) (see Ambrosi, C. M., et al. Prog Biophys Mol Biol 115, 294-304, (2014) and Ambrosi, C. M. et al. Methods Mol Biol 1181, 215-228, (2014)). After two hours, the cell suspension was centrifuged and culture medium was removed and replaced with fresh 10% FBS M199 for plating (see Ambrosi, C. M. et al. Methods Mol Biol 1181, 215-228, (2014)).
Non-infected control CMs and ChR2-CM cells (for OptoHTS) were plated using a concentration of 1.125×10^6 cells/mL to achieve a plating density of 470,000 cells/cm^2. For CM/ChR2-HEK co-cultures, CMs at a concentration of 1.125×10^6 cells/mL were mixed in a conical with trypsinized ChR2-HEK cells, pre-diluted to achieve ratios 150:1 CM to ChR2-HEK. After centrifugation, the media was removed and the cells were re-suspended in fresh 10% FBS M199 to achieve the same density of plating as the control CMs.
All functional experiments were carried out 4-5 days after cell plating, at room temperature in Tyrode's solution containing the following (in mM): NaCl, 135; MgCl2, 1; KCl, 5.4; CaCl2, 1.5; NaH2PO4, 0.33; glucose, 5; and HEPES, 5 adjusted to pH 7.4 with NaOH (see Chung, C. Y., et al. J Cardiovasc Electrophysiol 18, 1323-1329, (2007)). […]

"spark"-ChR2-CMs = assay: sOptoHTS: all-optical electrophysiology of CMs sprinkled with "spark" ChR2-HEK cells; type: cell-based, rat
Protocol: as §1
The cell delivery approach employs “spark” cells (ChR2(H134R)-HEK293), a stable cell line showing near 100% expression of ChR2. “Spark” cells were developed by transfecting HEK293 cells (CRL-1573™ ATCC®, Manassas, Va.) with the ChR2 plasmid pcDNA3.1/hChR2(H134R)-EYFP using LIPOFECTAMINE® 2000 (INVITROGEN™, Carlsbad, Calif.). […]

hiPS-CMs = assay: Optical calcium recording in hiPS-CMs (OptoDyCE); type: cell-based, human; conditions: 1 μM, 10 min
Protocol: Frozen human iPSC-derived CMs (ICELL® Cardiomyocytes^2 CMC-100-012-001, CELLULAR DYNAMICS INTERNATIONAL™, Madison, Wis.) were thawed per the manufacturer's instructions. The cells were plated at the recommended plating density of 156,000 cells/cm^2 on fibronectin-coated 96-well glass-bottom plates. In some experiments, cells were grown in three-dimensional microgrooved scaffolds. These fibronectin-coated PDMS (SYLGARD® 184, DOW CORNING®, Midland, Mich.) scaffolds with microtopographical features (see FIG. 16, panel “e,” peak-to-peak 120 μm, depth of 50 μm) were produced by molding onto metal templates fabricated by acoustic micromachining (see Entcheva, E. et al. Lab Chip 5, 179-183, (2005); Chung, C. Y. et al. FASEB journal: official publication of the Federation of American Societies for Experimental Biology 25, 851-862, (2011); and Chung, C. Y., et al. J Cardiovasc Electrophysiol 18, 1323-1329, (2007)); and small circular microgrooved scaffolds were punched-out and placed in the 96-well plates. […]
Optical recording of membrane voltage, Vm, was performed using the synthetic voltage-sensitive dye Di-4-ANBDQBS, spectrally-compatible with ChR2. […] Intracellular calcium, [Ca^2+]i, was recorded using QUEST RHOD-4™, AM diluted from a 0.5 mM stock solution dissolved in DMSO with 20% PLURONIC® to 10 μM in Tyrode's solution. […]

C[S+](C)[O-] [DMSO]
effect on APD / electrophysiological measurements [1]: not seen to affect the electrophysiological (EP) measurements

CN(CCOc1ccc(NS(C)(=O)=O)cc1)CCc1ccc(NS(C)(=O)=O)cc1 [dofetilide, Dofetilide]
drug-induced AP variation, lower dose ("spark"-ChR2-CMs; 0.2 μM, paced at 1 Hz): sporadic EADs
drug-induced AP variation, higher dose ("spark"-ChR2-CMs; 2 μM, paced 2 Hz): large temporal variability in AP morphology
early afterdepolarizations (EADs) versus dose ("spark"-ChR2-CMs; optically paced samples, FIGS. 10A-10C): dose-dependent increase in EADs
calcium instability / spatial heterogeneity ([1]; 0.02 μM, paced at 1 Hz, 0.539 mW/mm^2 10 ms light pulses): localized spontaneous calcium release (SCR)
spatial variability in APD (dispersion of repolarization) ([1]; 2 μM, 1 Hz pacing, versus control, p<0.05 for APD50): increases spatial variability in APD
effect on APD ([1]; 2 μM, 2 Hz optical pacing): APD prolongation
voltage instabilities ([1]; 2 μM, 2 Hz optical pacing): alternans
relative APD50 change versus pacing frequency ([1]; at higher frequency, opposite to reverse-use dependence): enhanced relative APD50 prolongation

CC(C)NCC(O)c1ccc(O)c(O)c1 (stereo not shown) [isoproterenol]
calcium-mediated pacing activity in quiescent cells (hiPS-CMs; quiescent hiPS-CMs): calcium-mediated pacing activity was induced
rate of pacing in spontaneously beating cells (hiPS-CMs; spontaneously beating hiPS-CMs): rate of pacing was accelerated

COC(=O)C1=C(C)NC(C)=C(C(=O)OC)C1c1ccccc1[N+](=O)[O-] [nifedipine, Nifedipine]
concentration of maximum APD shortening ([1]; optical pacing 1 Hz): around 1 μM
concentration up to which CTD monotonically decreases ([1]; optical pacing 1 Hz): up to 10 μM

Source: US11680904B2, “Automated system for high-throughput all-optical dynamic electrophysiology” (The George Washington University, priority 2016, dated 2023)
